From patent US6852673B2, “Herbicidal pyridine compounds” (BASF Aktiengesellschaft, priority 1998, dated 2005)

Key:
Assay type in all cases: in vivo
Glycine max (GLXMA) = assay: Pre-emergence herbicidal evaluation, soyabeans
Method in brief: (§1)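 Seeds planted in potting soil, then pots sprayed pre-emergence with aqueous acetone solution of test compound at about 0.0125 to 0.4 kg/ha. Kept under standard greenhouse care; injury rated 2 to 4 weeks after treatment.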

Oryza sativum (ORYSA) [1] = assay: Pre-emergence herbicidal evaluation, rice
Method in brief: as §1

[2] = system: Triticum aestivum (TRZAW); assay: Pre-emergence herbicidal evaluation, winter wheat
Method in brief: as §1

[3] = system: Abutilon theophrasti (ABUTH); assay: Pre-emergence herbicidal evaluation, velvetleaf
Method in brief: as §1

[4] = system: Ambrosia artemiisifolia (AMBEL); assay: Pre-emergence herbicidal evaluation, ragweed
Method in brief: as §1

Galium aparine (GALAP) [5] = assay: Pre-emergence herbicidal evaluation, cleaver
Method in brief: as §1

Lamium purpureum (LAMPU) [6] = assay: Pre-emergence herbicidal evaluation, purple deadnettle
Method in brief: as §1

[7] = system: Matricaria inodora (MATIN); assay: Pre-emergence herbicidal evaluation, mayweed
Method in brief: as §1

Solanum nigrum (SOLNI) [8] = assay: Pre-emergence herbicidal evaluation, black nightshade
Method in brief: as §1

Stellaria media (STEME) = assay: Pre-emergence herbicidal evaluation, chickweed
Method in brief: as §1

[9] = system: Alopecurus myosuroides (ALOMY); assay: Pre-emergence herbicidal evaluation, black grass
Method in brief: as §1

Setaria viridis (SETVI) [10] = assay: Pre-emergence herbicidal evaluation, green foxtail
Method in brief: as §1

Hordeum vulgare (HORVW) = assay: Post-emergence herbicidal evaluation, winter barley; conditions: rated 2 to 4 weeks after treatment
Method in brief: (§2)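 Acetone solutions of test compound were diluted with water and sprayed post-emergence at about 0.03 to 0.4 kg per hectare per pot. Plants were kept on greenhouse benches under conventional care. Seedlings were rated 2 to 4 weeks after treatment on a 0–9 scale (0 = growth as untreated control, 9 = death).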

Oryza sativum (ORYSA) [11] = assay: Post-emergence herbicidal evaluation, rice; conditions: rated 2 to 4 weeks after treatment
Method in brief: as §2

[12] = system: Triticum aestivum (TRZAW); assay: Post-emergence herbicidal evaluation, winter wheat; conditions: rated 2 to 4 weeks after treatment
Method in brief: as §2

Zea mays (ZEAMX) = assay: Post-emergence herbicidal evaluation, maize; conditions: rated 2 to 4 weeks after treatment
Method in brief: as §2

[13] = system: Abutilon theophrasti (ABUTH); assay: Post-emergence herbicidal evaluation, velvetleaf; conditions: rated 2 to 4 weeks after treatment
Method in brief: as §2

[14] = system: Ambrosia artemiisifolia (AMBEL); assay: Post-emergence herbicidal evaluation, ragweed; conditions: rated 2 to 4 weeks after treatment
Method in brief: as §2

Galium aparine (GALAP) [15] = assay: Post-emergence herbicidal evaluation, cleaver; conditions: rated 2 to 4 weeks after treatment
Method in brief: as §2

[16] = system: Ipomoea hederacea (IPOHE); assay: Post-emergence herbicidal evaluation, morning glory; conditions: rated 2 to 4 weeks after treatment
Method in brief: as §2

Lamium purpureum (LAMPU) [17] = assay: Post-emergence herbicidal evaluation, purple deadnettle; conditions: rated 2 to 4 weeks after treatment
Method in brief: as §2

[18] = system: Matricaria inodora (MATIN); assay: Post-emergence herbicidal evaluation, mayweed; conditions: rated 2 to 4 weeks after treatment
Method in brief: as §2

Solanum nigrum (SOLNI) [19] = assay: Post-emergence herbicidal evaluation, black nightshade; conditions: rated 2 to 4 weeks after treatment
Method in brief: as §2

[20] = system: Alopecurus myosuroides (ALOMY); assay: Post-emergence herbicidal evaluation, black grass; conditions: rated 2 to 4 weeks after treatment
Method in brief: as §2

[21] = system: Echinochloa grus galli (ECHCG); assay: Post-emergence herbicidal evaluation, barnyard grass; conditions: rated 2 to 4 weeks after treatment
Method in brief: as §2

Setaria viridis (SETVI) [22] = assay: Post-emergence herbicidal evaluation, green foxtail; conditions: rated 2 to 4 weeks after treatment
Method in brief: as §2

For `Cc1cc(OCC=C(Cl)Cl)nc(Oc2cc(C(F)(F)F)nn2C)c1` [Example 12], the GLXMA rating (Glycine max (GLXMA); dose 0.013 kg/ha) was 1 (1 - Trace effect), the GLXMA rating (Glycine max (GLXMA); dose 0.025 kg/ha) was 2 (2 - Slight effect) and the GLXMA rating (Glycine max (GLXMA); dose 0.1 kg/ha) was 3 (3 - Moderate effect). For the same compound, the GLXMA rating (Glycine max (GLXMA); dose 0.4 kg/ha) was 4 (4 - Injury), the ORYSA rating (Oryza sativum (ORYSA) [1]; dose 0.013 kg/ha) was 0 (0 - No effect) and the ORYSA rating (Oryza sativum (ORYSA) [1]; dose 0.025 kg/ha) was 0 (0 - No effect). The ORYSA rating (Oryza sativum (ORYSA) [1]; dose 0.1 kg/ha) was 1 (1 - Trace effect), the ORYSA rating (Oryza sativum (ORYSA) [1]; dose 0.4 kg/ha) was 3 (3 - Moderate effect) and the TRZAW rating ([2]; dose 0.013 kg/ha) was 1 (1 - Trace effect). The TRZAW rating ([2]; dose 0.025 kg/ha) was 2 (2 - Slight effect), the TRZAW rating ([2]; dose 0.1 kg/ha) was 3 (3 - Moderate effect) and the TRZAW rating ([2]; dose 0.4 kg/ha) was 6 (6 - Herbicidal effect). The ABUTH rating ([3]; dose 0.013 kg/ha) was 2 (2 - Slight effect), the ABUTH rating ([3]; dose 0.025 kg/ha) was 7 (7 - Good herbicidal effect) and the ABUTH rating ([3]; dose 0.1 kg/ha) was 8 (8 - Approaching complete kill). For the same compound, the ABUTH rating ([3]; dose 0.4 kg/ha) was 9 (9 - Complete kill), the AMBEL rating ([4]; dose 0.013 kg/ha) was 8 (8 - Approaching complete kill) and the AMBEL rating ([4]; dose 0.025 kg/ha) was 8 (8 - Approaching complete kill). The AMBEL rating ([4]; dose 0.1 kg/ha) was 9 (9 - Complete kill), the AMBEL rating ([4]; dose 0.4 kg/ha) was 9 (9 - Complete kill) and the GALAP rating (Galium aparine (GALAP) [5]; dose 0.013 kg/ha) was 1 (1 - Trace effect). For the same compound, the GALAP rating (Galium aparine (GALAP) [5]; dose 0.025 kg/ha) was 4 (4 - Injury), the GALAP rating (Galium aparine (GALAP) [5]; dose 0.1 kg/ha) was 8 (8 - Approaching complete kill) and the GALAP rating (Galium aparine (GALAP) [5]; dose 0.4 kg/ha) was 9 (9 - Complete kill). For the same compound, the LAMPU rating (Lamium purpureum (LAMPU) [6]; dose 0.013 kg/ha) was 8 (8 - Approaching complete kill), the LAMPU rating (Lamium purpureum (LAMPU) [6]; dose 0.025 kg/ha) was 9 (9 - Complete kill) and the LAMPU rating (Lamium purpureum (LAMPU) [6]; dose 0.1 kg/ha) was 9 (9 - Complete kill). For the same compound, the LAMPU rating (Lamium purpureum (LAMPU) [6]; dose 0.4 kg/ha) was 9 (9 - Complete kill), the MATIN rating ([7]; dose 0.013 kg/ha) was 8 (8 - Approaching complete kill) and the MATIN rating ([7]; dose 0.025 kg/ha) was 9 (9 - Complete kill). The MATIN rating ([7]; dose 0.1 kg/ha) was 9 (9 - Complete kill), the MATIN rating ([7]; dose 0.4 kg/ha) was 9 (9 - Complete kill) and the SOLNI rating (Solanum nigrum (SOLNI) [8]; dose 0.013 kg/ha) was 5 (5 - Definite injury). The SOLNI rating (Solanum nigrum (SOLNI) [8]; dose 0.025 kg/ha) was 8 (8 - Approaching complete kill), the SOLNI rating (Solanum nigrum (SOLNI) [8]; dose 0.1 kg/ha) was 8 (8 - Approaching complete kill) and the SOLNI rating (Solanum nigrum (SOLNI) [8]; dose 0.4 kg/ha) was 8 (8 - Approaching complete kill). For the same compound, the STEME rating (Stellaria media (STEME); dose 0.013 kg/ha) was 6 (6 - Herbicidal effect), the STEME rating (Stellaria media (STEME); dose 0.025 kg/ha) was 8 (8 - Approaching complete kill) and the STEME rating (Stellaria media (STEME); dose 0.1 kg/ha) was 9 (9 - Complete kill). For the same compound, the STEME rating (Stellaria media (STEME); dose 0.4 kg/ha) was 9 (9 - Complete kill), the ALOMY rating ([9]; dose 0.013 kg/ha) was 3 (3 - Moderate effect) and the ALOMY rating ([9]; dose 0.025 kg/ha) was 8 (8 - Approaching complete kill). The ALOMY rating ([9]; dose 0.1 kg/ha) was 9 (9 - Complete kill), the ALOMY rating ([9]; dose 0.4 kg/ha) was 9 (9 - Complete kill) and the SETVI rating (Setaria viridis (SETVI) [10]; dose 0.013 kg/ha) was 5 (5 - Definite injury). For the same compound, the SETVI rating (Setaria viridis (SETVI) [10]; dose 0.025 kg/ha) was 9 (9 - Complete kill), the SETVI rating (Setaria viridis (SETVI) [10]; dose 0.1 kg/ha) was 9 (9 - Complete kill) and the SETVI rating (Setaria viridis (SETVI) [10]; dose 0.4 kg/ha) was 9 (9 - Complete kill). For the same compound, the HORVW rating (Hordeum vulgare (HORVW); dose 0.03 kg/ha) was 3 (3 - Moderate effect), the HORVW rating (Hordeum vulgare (HORVW); dose 0.1 kg/ha) was 5 (5 - Definite injury) and the HORVW rating (Hordeum vulgare (HORVW); dose 0.4 kg/ha) was 6 (6 - Herbicidal effect). For the same compound, the ORYSA rating (Oryza sativum (ORYSA) [11]; dose 0.03 kg/ha) was 2 (2 - Slight effect), the ORYSA rating (Oryza sativum (ORYSA) [11]; dose 0.1 kg/ha) was 3 (3 - Moderate effect) and the ORYSA rating (Oryza sativum (ORYSA) [11]; dose 0.4 kg/ha) was 4 (4 - Injury). The TRZAW rating ([12]; dose 0.03 kg/ha) was 3 (3 - Moderate effect), the TRZAW rating ([12]; dose 0.1 kg/ha) was 3 (3 - Moderate effect) and the TRZAW rating ([12]; dose 0.4 kg/ha) was 5 (5 - Definite injury). For the same compound, the ZEAMX rating (Zea mays (ZEAMX); dose 0.03 kg/ha) was 2 (2 - Slight effect), the ZEAMX rating (Zea mays (ZEAMX); dose 0.1 kg/ha) was 4 (4 - Injury) and the ZEAMX rating (Zea mays (ZEAMX); dose 0.4 kg/ha) was 6 (6 - Herbicidal effect). The ABUTH rating ([13]; dose 0.03 kg/ha) was 8 (8 - Approaching complete kill), the ABUTH rating ([13]; dose 0.1 kg/ha) was 9 (9 - Complete kill) and the ABUTH rating ([13]; dose 0.4 kg/ha) was 9 (9 - Complete kill). The AMBEL rating ([14]; dose 0.03 kg/ha) was 5 (5 - Definite injury), the AMBEL rating ([14]; dose 0.1 kg/ha) was 6 (6 - Herbicidal effect) and the AMBEL rating ([14]; dose 0.4 kg/ha) was 7 (7 - Good herbicidal effect). For the same compound, the GALAP rating (Galium aparine (GALAP) [15]; dose 0.03 kg/ha) was 7 (7 - Good herbicidal effect), the GALAP rating (Galium aparine (GALAP) [15]; dose 0.1 kg/ha) was 8 (8 - Approaching complete kill) and the GALAP rating (Galium aparine (GALAP) [15]; dose 0.4 kg/ha) was 9 (9 - Complete kill). The IPOHE rating ([16]; dose 0.03 kg/ha) was 9 (9 - Complete kill), the IPOHE rating ([16]; dose 0.1 kg/ha) was 9 (9 - Complete kill) and the IPOHE rating ([16]; dose 0.4 kg/ha) was 9 (9 - Complete kill). The LAMPU rating (Lamium purpureum (LAMPU) [17]; dose 0.03 kg/ha) was 8 (8 - Approaching complete kill), the LAMPU rating (Lamium purpureum (LAMPU) [17]; dose 0.1 kg/ha) was 8 (8 - Approaching complete kill) and the LAMPU rating (Lamium purpureum (LAMPU) [17]; dose 0.4 kg/ha) was 8 (8 - Approaching complete kill). The MATIN rating ([18]; dose 0.03 kg/ha) was 8 (8 - Approaching complete kill), the MATIN rating ([18]; dose 0.1 kg/ha) was 8 (8 - Approaching complete kill) and the MATIN rating ([18]; dose 0.4 kg/ha) was 8 (8 - Approaching complete kill). For the same compound, the SOLNI rating (Solanum nigrum (SOLNI) [19]; dose 0.03 kg/ha) was 8 (8 - Approaching complete kill), the SOLNI rating (Solanum nigrum (SOLNI) [19]; dose 0.1 kg/ha) was 8 (8 - Approaching complete kill) and the SOLNI rating (Solanum nigrum (SOLNI) [19]; dose 0.4 kg/ha) was 8 (8 - Approaching complete kill). The ALOMY rating ([20]; dose 0.03 kg/ha) was 8 (8 - Approaching complete kill), the ALOMY rating ([20]; dose 0.1 kg/ha) was 9 (9 - Complete kill) and the ALOMY rating ([20]; dose 0.4 kg/ha) was 9 (9 - Complete kill). For the same compound, the ECHCG rating ([21]; dose 0.03 kg/ha) was 9 (9 - Complete kill), the ECHCG rating ([21]; dose 0.1 kg/ha) was 9 (9 - Complete kill) and the ECHCG rating ([21]; dose 0.4 kg/ha) was 9 (9 - Complete kill). The SETVI rating (Setaria viridis (SETVI) [22]; dose 0.03 kg/ha) was 9 (9 - Complete kill), the SETVI rating (Setaria viridis (SETVI) [22]; dose 0.1 kg/ha) was 9 (9 - Complete kill) and the SETVI rating (Setaria viridis (SETVI) [22]; dose 0.4 kg/ha) was 9 (9 - Complete kill).
